Like-named read-outs stand apart in the source and are kept apart here. Marks after values point to notes of the source that are not given here. Bridge positions count the residues as written; N and C are the ends. Ends that are not written are not given here. I, II: the chains in the order shown.
Tests used:
Hemolytic activity = assay type: cell-based; conditions: for Hemolytic Activity (%) at 10 μM: peptide at 10 μM; for Hemolytic Activity (%) at 50 μM: peptide at 50 μM
Method: (§1) Pilosulin-like peptides 1–6 were prepared using Fmoc chemistry by GenScript (Nanjing, Jiangsu, China). The peptides were purified by RP-HPLC with a preparative C18 column. The purity and molecular weight of the final peptides were verified by HPLC and MS. Antimicrobial, hemolytic, and histamine-releasing activities were measured as described previously.

E. coli (NBRC 14237) = assay type: cell-based, Escherichia coli; conditions: minimum inhibitory concentration; synthetic peptides; method as described previously [6]
Description: (§2) Pilosulin-like peptides 1–6 were chemically synthesized by the 9-fluorenylmethyloxycarbonyl (Fmoc) method, and we examined their biological activities (Table 3). We synthesized homodimeric pilosulin-like peptide 4, which was linked by a single disulfide bond. […] These activities were higher than those of magainin, a well-known Xenopus laevis antimicrobial peptide. […] The cysteine residue of pilosulin-like peptide 4 may be important for antifungal activity.
as §1

[1] = system: S. cerevisiae (NBRC 10217); assay type: cell-based, Saccharomyces cerevisiae; conditions: minimum inhibitory concentration; synthetic peptides; method as described previously [6]
Description: as §2, §1

S. aureus (NBRC 12732) = assay type: cell-based, Staphylococcus aureus; conditions: minimum inhibitory concentration; synthetic peptides; method as described previously [6]
Description: as §2, §1

rat mast cells [2] = experiment: Histamine-releasing activity; assay type: cell-based; conditions: peptide at 10 μM
Method: as §1

rat mast cells [3] = conditions: peptide at 10 μM; ref Shigeri et al. [24]; cited from earlier work
Method: Table 3 Biological properties of O. monticola pilosulin-like peptides. | column: Histamine-Releasing Activity at 10 μM (%)

[4] = peptide at 10 μM; ref Shigeri et al. [24]; cited from earlier work
Method: Table 3 Biological properties of O. monticola pilosulin-like peptides. | column: Hemolytic Activity (%) / at 10 μM

GWGSIFKTVGKMIAKAAVKAAPEAISAMASQNE [PLP2]
Hemolytic Activity (%) at 10 μM (Hemolytic activity): Negative | Hemolytic Activity (%) at 50 μM (Hemolytic activity): 10.4% | MIC, E. coli (NBRC 14237) (E. coli (NBRC 14237)): <6.2 µM | MIC, S. cerevisiae (NBRC 10217) [1]: <50 µM | MIC, S. aureus (NBRC 12732) (S. aureus (NBRC 12732)): <6.2 µM

IWGALLGTLIPAITSAIQ-NH2 [PLP5]
Hemolytic Activity (%) at 10 μM (Hemolytic activity): 6.9% | Hemolytic Activity (%) at 50 μM (Hemolytic activity): 94.8% | MIC, E. coli (NBRC 14237) (E. coli (NBRC 14237)): <50 µM

KIKWGKIFKKGGKLIGKTALEAAANAAASEAISAMASQNE [PLP3]
Hemolytic Activity (%) at 10 μM (Hemolytic activity): Negative | Hemolytic Activity (%) at 50 μM (Hemolytic activity): Negative | MIC, E. coli (NBRC 14237) (E. coli (NBRC 14237)): <3.1 µM | MIC, S. cerevisiae (NBRC 10217) [1]: <50 µM | MIC, S. aureus (NBRC 12732) (S. aureus (NBRC 12732)): <25 µM

GILDWGKKVMDWIKDKM-NH2 [PLP1]
Hemolytic Activity (%) at 10 μM (Hemolytic activity): Negative | Hemolytic Activity (%) at 50 μM (Hemolytic activity): Negative | MIC, E. coli (NBRC 14237) (E. coli (NBRC 14237)): <3.1 µM | MIC, S. cerevisiae (NBRC 10217) [1]: <50 µM | MIC, S. aureus (NBRC 12732) (S. aureus (NBRC 12732)): <3.1 µM

I: GVKELFGKAWGLVKKHLPKACGLLGYVKQ-OH / II: GVKELFGKAWGLVKKHLPKACGLLGYVKQ-OH (disulfide I:21-II:21) [PLP4]
Hemolytic Activity (%) at 10 μM (Hemolytic activity): Negative | Hemolytic Activity (%) at 50 μM (Hemolytic activity): 10.5% | MIC, E. coli (NBRC 14237) (E. coli (NBRC 14237)): <3.1 µM | MIC, S. cerevisiae (NBRC 10217) [1]: <3.1 µM | MIC, S. aureus (NBRC 12732) (S. aureus (NBRC 12732)): <3.1 µM | Histamine-Releasing Activity at 10 μM (%) (rat mast cells [2]): 66.4% | Histamine-Releasing Activity at 10 μM (%) (rat mast cells [2]; listed as Pilosulin-like peptide 4): comparable to that of melittin

Melittin: a honey bee hemolytic peptide
Histamine-Releasing Activity at 10 μM (%) (rat mast cells [3]): 64.3 ^b % | Hemolytic Activity (%) at 10 μM [4]: 100.0 ^b %

Magainin [reference compound]
MIC, E. coli (NBRC 14237) (E. coli (NBRC 14237)): <12.5 µM | MIC, S. cerevisiae (NBRC 10217) [1]: Negative | MIC, S. aureus (NBRC 12732) (S. aureus (NBRC 12732)): <25 µM

Mastoparan
Histamine-Releasing Activity at 10 μM (%) (rat mast cells [3]): 31.1 ^b % | Hemolytic Activity (%) at 10 μM [4]: 13.5 ^b %

IKGKKIMKNMGKAMKIAGKVAKAMAPIVVPLIVSAA-NH2 [PLP6]
Hemolytic Activity (%) at 10 μM (Hemolytic activity): Negative | Hemolytic Activity (%) at 50 μM (Hemolytic activity): Negative | MIC, E. coli (NBRC 14237) (E. coli (NBRC 14237)): <3.1 µM | MIC, S. aureus (NBRC 12732) (S. aureus (NBRC 12732)): <3.1 µM

From article PMC6356579, “Mass Spectrometry Analysis and Biological Characterization of the Predatory Ant Odontomachus monticola Venom and Venom Sac Components” (Toxins, 2019)
